From patent US11767310B2, “Nicotinamide RIPK1 inhibitors” (AbbVie Inc., priority 2021, dated 2023)
Read-outs that look alike come from different tables or passages of the source.

Columns and labels:
Assay in all cases: Kinase binding screen
Settings in all cases: read-out: Percent Control at 100 nM Compound Concentration
ACVR2A = ACVR2A (Homo sapiens (Human), UniProt P27037)
AKT1 = AKT1 (Homo sapiens (Human), UniProt P31749)
AKT2 = AKT2 (Homo sapiens (Human), UniProt P31751)
ASK2 = ASK2 (Homo sapiens (Human), UniProt O95382)
CAMK2G = CAMK2G (Homo sapiens (Human), UniProt Q13555)
CDC2L2 = CDC2L2 (Homo sapiens (Human), UniProt Q9UQ88)
CDK2 = CDK2 (Homo sapiens (Human), UniProt P24941)
CDK5 = CDK5 (Homo sapiens (Human), UniProt Q00535)
CTK = CTK (Homo sapiens (Human), UniProt P42679)
DRAK1 = DRAK1 (Homo sapiens (Human), UniProt Q9UEE5)
DRAK1, sequence (Q9UEE5 whole entry): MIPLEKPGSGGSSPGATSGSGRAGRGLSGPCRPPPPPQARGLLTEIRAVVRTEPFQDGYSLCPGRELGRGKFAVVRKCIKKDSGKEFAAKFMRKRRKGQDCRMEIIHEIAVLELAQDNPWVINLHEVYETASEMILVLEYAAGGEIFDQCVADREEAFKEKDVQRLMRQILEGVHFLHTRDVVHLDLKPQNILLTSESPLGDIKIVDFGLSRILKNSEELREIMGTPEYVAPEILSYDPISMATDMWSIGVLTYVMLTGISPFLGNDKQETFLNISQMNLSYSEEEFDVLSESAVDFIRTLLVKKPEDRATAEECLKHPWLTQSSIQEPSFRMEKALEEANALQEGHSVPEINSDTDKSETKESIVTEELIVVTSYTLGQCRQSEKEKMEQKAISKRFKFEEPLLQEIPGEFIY

EPHA8 = EPHA8 (Homo sapiens (Human), UniProt P29322)
EPHA8, sequence (P29322 28-1005): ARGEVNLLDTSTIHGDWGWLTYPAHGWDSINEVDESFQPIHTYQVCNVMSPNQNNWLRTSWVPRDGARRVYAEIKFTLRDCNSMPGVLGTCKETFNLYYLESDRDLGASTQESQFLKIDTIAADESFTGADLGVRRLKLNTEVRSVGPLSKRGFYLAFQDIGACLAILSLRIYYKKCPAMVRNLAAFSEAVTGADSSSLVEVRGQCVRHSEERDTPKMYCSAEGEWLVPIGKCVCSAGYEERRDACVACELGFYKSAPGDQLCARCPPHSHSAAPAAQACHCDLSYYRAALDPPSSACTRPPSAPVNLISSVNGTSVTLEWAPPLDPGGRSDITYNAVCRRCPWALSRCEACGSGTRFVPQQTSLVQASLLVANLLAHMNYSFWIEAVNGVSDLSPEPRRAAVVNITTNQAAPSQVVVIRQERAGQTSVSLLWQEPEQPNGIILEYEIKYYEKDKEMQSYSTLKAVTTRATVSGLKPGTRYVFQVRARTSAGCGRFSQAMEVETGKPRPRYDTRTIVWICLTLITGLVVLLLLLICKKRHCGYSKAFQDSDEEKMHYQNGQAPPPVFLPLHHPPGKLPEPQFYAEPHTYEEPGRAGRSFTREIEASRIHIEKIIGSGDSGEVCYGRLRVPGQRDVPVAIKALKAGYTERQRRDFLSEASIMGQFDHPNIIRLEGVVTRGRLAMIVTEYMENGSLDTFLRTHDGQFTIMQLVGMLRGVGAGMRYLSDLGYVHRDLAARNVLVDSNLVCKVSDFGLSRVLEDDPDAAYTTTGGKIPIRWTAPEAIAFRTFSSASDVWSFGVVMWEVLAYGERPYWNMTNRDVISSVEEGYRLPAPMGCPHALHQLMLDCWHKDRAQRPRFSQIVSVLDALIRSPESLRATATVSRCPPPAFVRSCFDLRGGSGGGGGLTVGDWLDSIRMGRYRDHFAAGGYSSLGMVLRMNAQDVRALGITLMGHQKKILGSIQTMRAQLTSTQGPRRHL

ERK3 = ERK3 (Homo sapiens (Human), UniProt Q16659)
ERK4 = ERK4 (Homo sapiens (Human), UniProt P31152)
HIPK2 = HIPK2 (Homo sapiens (Human), UniProt Q9H2X6)
IKK-beta = IKK-beta (Homo sapiens (Human), UniProt O14920)
IKK-beta, sequence (O14920 whole entry): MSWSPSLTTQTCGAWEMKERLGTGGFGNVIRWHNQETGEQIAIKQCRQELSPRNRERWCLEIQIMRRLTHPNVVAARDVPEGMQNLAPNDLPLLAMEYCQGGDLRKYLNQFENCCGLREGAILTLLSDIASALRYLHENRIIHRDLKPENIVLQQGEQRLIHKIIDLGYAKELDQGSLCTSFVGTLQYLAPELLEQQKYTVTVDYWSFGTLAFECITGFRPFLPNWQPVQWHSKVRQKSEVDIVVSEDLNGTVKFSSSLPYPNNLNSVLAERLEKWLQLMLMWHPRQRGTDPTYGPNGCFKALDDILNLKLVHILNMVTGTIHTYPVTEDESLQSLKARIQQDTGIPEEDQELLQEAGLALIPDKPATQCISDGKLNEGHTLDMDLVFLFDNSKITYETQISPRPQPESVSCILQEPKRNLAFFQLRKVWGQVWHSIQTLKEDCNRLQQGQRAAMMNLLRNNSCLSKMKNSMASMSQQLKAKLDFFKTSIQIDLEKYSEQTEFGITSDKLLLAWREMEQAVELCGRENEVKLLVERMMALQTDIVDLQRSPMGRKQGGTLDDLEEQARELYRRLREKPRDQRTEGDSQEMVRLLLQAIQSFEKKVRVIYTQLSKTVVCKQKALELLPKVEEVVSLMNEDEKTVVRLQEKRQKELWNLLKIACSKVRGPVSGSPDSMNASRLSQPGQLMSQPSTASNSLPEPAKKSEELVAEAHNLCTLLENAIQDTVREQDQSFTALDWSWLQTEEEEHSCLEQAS

[1] = biological target: JAK3(JH1domain-catalytic) (Homo sapiens (Human), UniProt P52333)
LATS1 = LATS1 (Homo sapiens (Human), UniProt O95835)
LATS2 = LATS2 (Homo sapiens (Human), UniProt Q9NRM7)
LZK = LZK (Homo sapiens (Human), UniProt O43283)
LZK, sequence (O43283 whole entry): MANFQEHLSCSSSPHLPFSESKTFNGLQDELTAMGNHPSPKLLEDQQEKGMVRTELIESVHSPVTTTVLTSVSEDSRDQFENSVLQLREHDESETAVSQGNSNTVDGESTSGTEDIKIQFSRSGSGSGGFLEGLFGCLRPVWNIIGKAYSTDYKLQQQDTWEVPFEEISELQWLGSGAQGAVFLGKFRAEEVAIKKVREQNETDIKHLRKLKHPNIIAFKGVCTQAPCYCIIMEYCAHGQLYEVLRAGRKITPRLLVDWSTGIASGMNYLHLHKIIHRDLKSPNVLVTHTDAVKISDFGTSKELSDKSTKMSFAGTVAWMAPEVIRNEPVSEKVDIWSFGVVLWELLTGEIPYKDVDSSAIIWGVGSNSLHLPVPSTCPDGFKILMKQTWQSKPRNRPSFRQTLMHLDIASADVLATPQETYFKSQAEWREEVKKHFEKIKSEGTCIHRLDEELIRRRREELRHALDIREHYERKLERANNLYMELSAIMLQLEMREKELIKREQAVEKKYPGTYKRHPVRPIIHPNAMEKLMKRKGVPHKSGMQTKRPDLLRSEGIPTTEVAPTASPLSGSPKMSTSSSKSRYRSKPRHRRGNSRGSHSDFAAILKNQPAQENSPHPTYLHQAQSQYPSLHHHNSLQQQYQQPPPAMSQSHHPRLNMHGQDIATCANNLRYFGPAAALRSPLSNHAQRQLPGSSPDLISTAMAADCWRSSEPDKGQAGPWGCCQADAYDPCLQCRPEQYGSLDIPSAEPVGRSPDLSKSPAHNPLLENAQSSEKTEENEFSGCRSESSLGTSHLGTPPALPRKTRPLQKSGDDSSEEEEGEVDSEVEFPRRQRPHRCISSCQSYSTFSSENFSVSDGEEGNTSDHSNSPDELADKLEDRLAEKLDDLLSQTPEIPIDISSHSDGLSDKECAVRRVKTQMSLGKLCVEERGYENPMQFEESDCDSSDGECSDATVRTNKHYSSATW

MARK2 = MARK2 (Homo sapiens (Human), UniProt Q7KZI7)
NEK11 = NEK11 (Homo sapiens (Human), UniProt Q8NG66)
PIK3C2B = PIK3C2B (Homo sapiens (Human), UniProt O00750)
PKNB(M.tuberculosis) = PKNB(M.tuberculosis) (Mycobacterium tuberculosis (strain ATCC 25618 / H37Rv), UniProt P9WI81)
QSK = QSK (Homo sapiens (Human), UniProt Q9Y2K2)
SGK3 = SGK3 (Homo sapiens (Human), UniProt Q96BR1)
STK33 = STK33 (Homo sapiens (Human), UniProt Q9BYT3)
TRKC = TRKC (Homo sapiens (Human), UniProt Q16288)
TRKC, sequence (Q16288 32-839): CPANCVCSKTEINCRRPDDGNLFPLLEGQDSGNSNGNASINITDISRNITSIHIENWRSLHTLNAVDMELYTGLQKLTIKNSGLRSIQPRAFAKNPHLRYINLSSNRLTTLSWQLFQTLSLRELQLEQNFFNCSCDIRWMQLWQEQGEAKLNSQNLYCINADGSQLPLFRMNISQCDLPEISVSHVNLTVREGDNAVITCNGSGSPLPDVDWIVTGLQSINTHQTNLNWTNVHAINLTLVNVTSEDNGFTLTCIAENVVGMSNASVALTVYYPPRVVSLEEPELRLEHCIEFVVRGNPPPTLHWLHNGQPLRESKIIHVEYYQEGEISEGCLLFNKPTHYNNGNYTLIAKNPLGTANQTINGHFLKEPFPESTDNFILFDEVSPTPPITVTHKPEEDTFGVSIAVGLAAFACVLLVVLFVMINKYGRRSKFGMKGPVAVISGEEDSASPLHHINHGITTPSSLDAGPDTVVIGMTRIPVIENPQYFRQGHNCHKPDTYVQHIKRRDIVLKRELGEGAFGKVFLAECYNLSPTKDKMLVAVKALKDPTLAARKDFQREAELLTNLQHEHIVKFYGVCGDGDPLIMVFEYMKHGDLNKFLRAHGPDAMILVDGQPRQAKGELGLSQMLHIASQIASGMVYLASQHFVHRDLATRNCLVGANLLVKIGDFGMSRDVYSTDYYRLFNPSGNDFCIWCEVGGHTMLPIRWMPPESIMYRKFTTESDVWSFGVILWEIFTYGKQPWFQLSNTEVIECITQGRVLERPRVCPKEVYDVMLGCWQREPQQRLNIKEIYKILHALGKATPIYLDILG

TRPM6 = TRPM6 (Homo sapiens (Human), UniProt Q9BX84)
ULK1 = ULK1 (Homo sapiens (Human), UniProt O75385)

Measured: remaining activity at 0.1 µM

ACVR2A, sequence (P27037 20-513): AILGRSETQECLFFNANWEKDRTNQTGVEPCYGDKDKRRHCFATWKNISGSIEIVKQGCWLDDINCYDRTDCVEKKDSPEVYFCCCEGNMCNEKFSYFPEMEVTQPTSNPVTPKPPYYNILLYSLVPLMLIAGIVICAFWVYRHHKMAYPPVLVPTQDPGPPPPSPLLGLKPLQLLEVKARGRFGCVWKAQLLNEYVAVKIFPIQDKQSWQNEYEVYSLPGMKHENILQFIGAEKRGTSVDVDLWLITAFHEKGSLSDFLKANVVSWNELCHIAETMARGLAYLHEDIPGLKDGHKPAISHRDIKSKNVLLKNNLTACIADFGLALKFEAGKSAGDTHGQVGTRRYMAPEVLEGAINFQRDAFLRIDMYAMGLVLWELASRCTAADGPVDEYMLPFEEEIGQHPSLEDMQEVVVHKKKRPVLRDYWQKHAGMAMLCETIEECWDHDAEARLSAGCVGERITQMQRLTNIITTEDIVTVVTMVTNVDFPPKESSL
AKT1, sequence (P31749 whole entry): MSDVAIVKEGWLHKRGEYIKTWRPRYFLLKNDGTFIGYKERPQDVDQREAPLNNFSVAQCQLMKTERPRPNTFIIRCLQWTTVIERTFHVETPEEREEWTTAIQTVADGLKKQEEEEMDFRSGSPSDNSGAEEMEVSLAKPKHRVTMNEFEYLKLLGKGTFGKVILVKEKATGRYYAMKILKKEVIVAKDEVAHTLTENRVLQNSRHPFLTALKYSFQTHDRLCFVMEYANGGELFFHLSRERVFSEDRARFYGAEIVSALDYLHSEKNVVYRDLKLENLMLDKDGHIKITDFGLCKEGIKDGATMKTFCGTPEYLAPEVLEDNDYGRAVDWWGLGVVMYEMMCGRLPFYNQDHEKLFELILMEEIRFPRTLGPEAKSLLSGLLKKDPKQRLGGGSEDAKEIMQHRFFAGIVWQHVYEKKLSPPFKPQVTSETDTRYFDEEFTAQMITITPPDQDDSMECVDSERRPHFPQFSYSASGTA

CN(C[C@@H](O)Cc1ccccc1)C(=O)c1cncc(C#Cc2cnn(C(F)F)c2)c1 [Example 2, (S)-5-((1-(difluoromethyl)-1H-pyrazol-4-yl)ethynyl)-N-(2-hydroxy-3-phenylpropyl)-N-methylnicotinamide]
98%: LATS2; LATS2
95%: DRAK1; DRAK1
88%: QSK; QSK | STK33; STK33
99%: AKT2; AKT2 | EPHA8; EPHA8 | HIPK2; HIPK2 | LZK; LZK | TRPM6; TRPM6
100%: AKT1; AKT1 | ASK2; ASK2 | CDC2L2; CDC2L2 | CDK2; CDK2 | CDK5; CDK5 | CTK; CTK | ERK3; ERK3 | ERK4; ERK4 | [1]; JAK3(JH1domain-catalytic) | LATS1; LATS1 | NEK11; NEK11 | PIK3C2B; PIK3C2B | PKNB(M.tuberculosis) | SGK3; SGK3 | TRKC; TRKC | ULK1; ULK1
94%: ACVR2A; ACVR2A | CAMK2G; CAMK2G
96%: IKK-beta; IKK-beta | MARK2; MARK2

CN(C[C@H](Cc1ccccc1)OP(=O)(O)O)C(=O)c1cncc(C#Cc2cnn(C(F)F)c2)c1 [Example 19, (S)-1-(5-((1-(difluoromethyl)-1H-pyrazol-4-yl)ethynyl)-N-methylnicotinamido)-3-phenylpropan-2-yl dihydrogen phosphate]
79%: HIPK2
85%: QSK
90%: AKT2 | CTK
95%: NEK11 | TRPM6
98%: ASK2
88%: LATS1
68%: TRKC
96%: IKK-beta
100%: ACVR2A | AKT1 | CAMK2G | CDC2L2 | CDK2 | CDK5 | DRAK1 | EPHA8 | ERK3 | ERK4 | [1] | LATS2 | MARK2 | PIK3C2B | PKNB(M.tuberculosis) | SGK3 | STK33 | ULK1
99%: LZK
